How the values were obtained:
[1] = tested on: UACC257 human melanoma cell line; test: Cell viability of UACC257 cells; format: cell-based; conditions: different doses, FIG. 10E
Method: (§1) Cell viability assay: Human melanoma cell lines and isolated primary cultured human melanocytes were propagated and tested in early passage (Passages 7 to 9). The effects of NNT inhibitors (2,3BD, DCC, and Palmitoyl coenzyme A lithium salt) on cell viability were evaluated by the CellTiter-Glo Luminescent Cell Viability Assay (Promega, #G7570) and measurement of luminescence was performed on an EnVision 2104 Multilabel Reader (PerkinElmer). Human melanoma cell lines and primary melanocytes were plated on 96-well white plates (10,000 cells/well) and were treated with the NNT inhibitors at the indicated concentrations for 24 h.

NNT [2] = target: T1, NNT (Homo sapiens, UniProt Q13423); test: GSH/GSSG ratio in UACC257 melanoma cells; format: cell-based; design: endogenous in cells; conditions: different doses
T1 sequence (Q13423 44-1086): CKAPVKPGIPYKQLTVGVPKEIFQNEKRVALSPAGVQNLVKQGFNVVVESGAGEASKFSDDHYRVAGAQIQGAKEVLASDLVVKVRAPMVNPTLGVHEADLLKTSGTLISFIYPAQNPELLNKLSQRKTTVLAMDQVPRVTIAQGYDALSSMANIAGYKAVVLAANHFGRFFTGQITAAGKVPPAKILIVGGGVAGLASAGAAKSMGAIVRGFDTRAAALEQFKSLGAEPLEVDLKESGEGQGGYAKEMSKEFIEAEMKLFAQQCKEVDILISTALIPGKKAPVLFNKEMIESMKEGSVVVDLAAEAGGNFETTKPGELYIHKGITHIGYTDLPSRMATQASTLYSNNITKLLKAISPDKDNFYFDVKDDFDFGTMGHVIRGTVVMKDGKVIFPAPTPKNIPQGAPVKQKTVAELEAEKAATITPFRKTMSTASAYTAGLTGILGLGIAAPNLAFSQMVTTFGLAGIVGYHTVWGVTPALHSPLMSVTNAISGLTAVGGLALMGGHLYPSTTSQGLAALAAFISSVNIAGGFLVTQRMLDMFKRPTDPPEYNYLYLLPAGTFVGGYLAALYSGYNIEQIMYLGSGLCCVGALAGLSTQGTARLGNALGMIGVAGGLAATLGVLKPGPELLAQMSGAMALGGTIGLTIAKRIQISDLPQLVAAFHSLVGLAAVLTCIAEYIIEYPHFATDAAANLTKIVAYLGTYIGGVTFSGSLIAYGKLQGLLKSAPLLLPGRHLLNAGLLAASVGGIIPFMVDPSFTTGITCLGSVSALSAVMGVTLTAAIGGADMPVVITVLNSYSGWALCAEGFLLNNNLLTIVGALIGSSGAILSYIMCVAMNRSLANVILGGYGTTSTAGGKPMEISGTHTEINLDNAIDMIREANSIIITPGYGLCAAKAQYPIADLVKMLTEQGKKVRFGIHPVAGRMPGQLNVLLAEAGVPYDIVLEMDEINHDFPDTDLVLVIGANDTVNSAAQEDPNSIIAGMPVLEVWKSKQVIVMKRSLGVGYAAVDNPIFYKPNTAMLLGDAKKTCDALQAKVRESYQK
Method: (§2) Glutathione measurements: Cell lysates were prepared from equal numbers of cells after 24 h of DCC or 2,3BD treatment, following the manufacturer's protocols. Seventy-two h post siRNA treatment or overexpression of NNT and their corresponding controls, glutathione levels were determined using the GSH/GSSG-Glo assay (Promega, #V6611) and luminescence was measured using an EnVision 2104 Multilabel Reader (PerkinElmer).

primary melanocytes = test: Cell viability of primary melanocytes, different doses; format: cell-based, human; conditions: different doses, relative to vehicle, FIG. 10C
Method: as §1

zebrafish melanocytes = test: Chemical treatment of zebrafish, melanocytic brightness; format: in vivo; conditions: 24 hours, 100 μM 2,3BD or 50 μM DCC
Method: Wildtype Tübingen zebrafish were placed in a 24 well plate at 72 hours post-fertilization, with 10 larvae per well for a total twenty larvae per condition. Larvae were treated for 24 hours with either 2,3BD (1 μM, 10 μM, 100 μM, 1 mM; Sigma Aldrich, #B85307), DCC (1 μM, 10 μM, 50 μM, 100 μM; Sigma Aldrich, #D80002), or DMSO (1:500) in E3 embryo medium. At 4 days post fertilization, larvae were imaged using a Nikon SMZ18 Stereomicroscope. Melanocytes from at least 5 zebrafish embryos of each group for each experiment were analyzed using the FIJI software enabling pixel-based color quantification.

[3] = tested on: human melanocytes, dermal fibroblasts, and keratinocytes; test: Cell viability of human skin cells with NNT inhibitors; format: cell-based; conditions: up to 10 μM, FIG. 10B
Method: Primary human keratinocytes were cultured in EpiLife® medium supplemented with human keratinocyte growth supplement (HKGS, ThermoFisher Scientific). Primary human fibroblasts were cultured in medium 106 supplemented with low serum growth supplement (LSGS, ThermoFisher Scientific). 10^6 and […] cells were plated per well of 6-well and 96-well plates, respectively. Drugs indicated in the figure legends were dissolved in DMSO and added 1:1000 to the culture media for 24 h at the concentrations indicated.
as §1

NNT [4] = target: T1, NNT; test: GSH/GSSG ratio (indirect endpoint of NNT enzyme activity) in primary melanocytes; format: cell-based; design: endogenous in cells; host or cells: primary human melanocytes (isolated from neonatal foreskins); conditions: different doses, 24 hours
Method: as §2

[5] = tested on: primary human melanocytes; test: Intracellular melanin content of primary human melanocytes with NNT inhibitors; format: cell-based; conditions: 2.3 BD 2 mM for 72 hours, FIG. 10D
Excerpt: Primary human melanocytes were isolated from normal discarded foreskins and were established in TIVA medium as described previously (Khaled et al., 2010) or in Medium 254 (Life Technologies, #M254500) (Allouche et al., 2015). Human melanoma cell line UACC257 (sex unspecified) was obtained from the National Cancer Institute (NCI), Frederick Cancer Division of Cancer Treatment and Diagnosis (DCTD) Tumor Cell Line Repository. SK-MEL-30 ([…]) human melanoma cell line was from Memorial Sloan Kettering Cancer Center. Both melanoma cell lines have been authenticated by our lab using ATCC's STR profiling service. UACC257 and SK-MEL-30 cells were cultured in DMEM and RPMI medium (Life Technologies, #11875119) respectively, supplemented with 10% fetal bovine serum and 1% penicillin/streptomycin/L-glutamine in a humidified atmosphere of 95% air and 5% CO2 at 37° C.
(§3) In vitro culture with NNT inhibitors: 2,3-Butanedione 97% (2,3 BD) (Sigma Aldrich, #B85307) (1 μM, 10 μM, 100 μM, 2 mM), N,N-Dicyclohexylcarbodiimide (DCC) (Sigma Aldrich, #D80002) (1 mM, 2 mM, 10 mM), and Palmitoyl coenzyme A lithium salt (Sigma Aldrich, #P9716) (10 μM, 2 mM) were reconstituted with DMSO (American Type Culture Collection, 4-X).
(§4) Melanin quantification: Equal numbers of cells were plated in 6-well plates. The cells were then harvested 72-96 hours post siRNA or NNT inhibitors compounds, as indicated in the legends, pelleted, washed in PBS and counted. 10^6 cells were used for measurement of protein concentration with the Pierce BCA protein assay (Thermo Fisher Scientific, #23225) and 10^6 cells were resuspended in 60 μl of 1 N NaOH solution and incubated at 60° C. for 2 h or until the melanin was completely dissolved. After cooling down to room temperature, samples were centrifuged at 500×g for 10 min and the supernatants were loaded onto a 96-well plate. The melanin content was determined by measuring the absorbance at 405 nm on an Envision plate reader, compared with a melanin standard (0 to 50 μg/ml; Sigma Aldrich, #M8631). Melanin content was expressed as micrograms per milligram of protein.

murine Melan-A cells = test: Melanin content of Melan-A cells with NNT inhibitors; format: cell-based, mouse; conditions: 2 mM, FIG. 3A
Method: Murine Melan-A (Bennett et al., 1987) cells were obtained from the Wellcome Trust Functional Genomics Cell Bank. Melan-A cells were grown in RPMI 1640 supplemented with 10% FBS or FetalPlex (Gemini Bio-Products, #100-602), 100,000 U/L penicillin, 100 mg/L streptomycin sulphate, 100× Glutamax, and 200 nM TPA.
as §3, §4

For `C(=NC1CCCCC1)=NC1CCCCC1` [DCC, N,N′-Dicyclohexylcarbodiimide], the cell viability [1] was “no impact on cell viability”, the GSH/GSSG ratio (NNT [2]) was “decreased GSH/GSSG ratios” and the cell viability (primary melanocytes) was “no impacts on cell viability”. For the same compound, the “darkening of zebrafish embryos (melanocytic brightness)” value (zebrafish melanocytes) was “significant darkening”, the “toxicity (viability)” value [3] was “no significant toxicity” and the GSH/GSSG ratio (NNT [4]) was “decreased GSH/GSSG ratios”. The intracellular melanin content [5] was “significantly increased the melanin content” and the melanin content (murine Melan-A cells) was “increased melanin content”.
